These results are taken from patent publication US20170107212A1, “NOVEL COMPOUNDS” (Bayer Pharma Aktiengesellschaft, priority 2014, published 2017).

Assay [1] deals with constitutive active colorectal cancer cell (CRC) Wnt pathway, HCT116 TOPFlash. Nature of the assay: Cellular reporter assay, HCT116 Super TopFlash (constitutive active Wnt pathway), luciferase expression. The class given is cell-based. Conditions: Homo sapiens, HCT-116, 36 h, HCT116 Super TopFlash reporter cells, 36 hours incubation, dilution series 50 μM to 15 nM. The essentials:
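HCT116 cells stably carrying Super TopFlash (β-catenin ΔS45, constitutive Wnt) run in parallel with FOP control line; compounds 50 μM to 15 nM (3.16-fold) in CAFTY buffer pH 7.4 with 2 mM Ca2+, 0.01% BSA, 36 h at 37 °C. Luciferase luminescence read as Wnt activity.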
(In a reporter assay the amount or activity of a reporter protein is the signal.)

In a further assay the test system is HCT116 FOPFlash. Put plainly: Control reporter assay, HCT116 FOP control vector (non-functional TCF elements), luciferase expression. The class given is cell-based. Conditions: Homo sapiens, HCT-116, 36 h, HCT116 FOP control reporter cells, 36 hours incubation, dilution series 50 μM to 15 nM. The essentials: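 Stable HCT116 cells carrying FOP vector (randomized non-functional TCF sites) plus pcDNA3, run in parallel with TOP line; compounds 50 μM to 15 nM (3.16-fold steps) added in CAFTY buffer pH 7.4 with 2 mM Ca2+, 0.01% BSA. Incubated 36 h at 37 °C, 5% CO2; luciferase luminescence read.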

In the next assay the test system is Dishevelled-2 protein. Conditions: according to WO 2011/035321 (A1); cited from earlier work.
For assay [2], the system named is Wnt3A-stimulated R-catenin stabilization. Conditions: according to WO 2011/035321 (A1); cited from earlier work.
A further assay deals with Frizzled1. Conditions: according to WO 2011/035321 (A1); cited from earlier work.
Assay [3] concerns LEF/TCF reporter activity. Conditions: Wnt3A-stimulated; according to WO 2011/035321 (A1); cited from earlier work.

The structures appear in SMILES notation.

What is called IC50 is the point on the concentration scale where inhibition reaches its midpoint. On to `O=C(CN1CCOCC1)Nc1cc(C(=O)Nc2nnc(-c3cnccc3F)s2)ccc1OC(F)(F)F` [Example 107, N-[5-(4-fluoropyridin-3-yl)-1,3,4-thiadiazol-2-yl]-3-[(morpholin-4-ylacetyl)amino]-4-(trifluoromethoxy)benzamide], for which the IC50 (in assay [1]; in the assay with HCT116 FOPFlash) was no less than 50 µM in each case.

As for `Cc1ncsc1-c1nnc(NC(=O)c2ccc(OC(F)(F)F)c(NC(=O)CN3CCOCC3)c2)s1` [Example 108, N-[5-(4-methyl-1,3-thiazol-5-yl)-1,3,4-thiadiazol-2-yl)-3-[(morpholin-4-ylacetyl)amino]-4-(trifluoromethoxy)benzamide], the half-maximal inhibitory concentration (IC50) (in assay [1]; with HCT116 FOPFlash) was no less than 50 µM each time.

For `CN1CCN(CC(=O)Nc2cc(C(=O)Nc3nnc(-c4cnccc4F)s3)ccc2OC(F)(F)F)CC1` [Example 109, N-[5-(4-fluoropyridin-3-yl)-1,3,4-thiadiazol-2-yl]-3-{[(4-methylpiperazin-1-yl)acetyl]amino}-4-(trifluoromethoxy}benzamide], the concentration for half-maximal inhibition (IC50) in assay [1] is 32 µM; in the assay on HCT116 FOPFlash it was no less than 50 µM.

Regarding `O=C(CN1CCOCC1)Nc1cc(C(=O)Nc2nnc(-c3cnccc3C(F)(F)F)s2)ccc1OC(F)(F)F` [Example 110, 3-[(morpholin-4-ylacetyl)amino)-4-(trifluoromethoxy)-N-{5-[4 (trifluoromethyl)pyridin-3-yl)-1,3,4-thiadiazol-2-yl}benzamide], the results for the IC50 (in assay [1]; with HCT116 FOPFlash) were 33 µM and no less than 50 µM, respectively.

`Cc1ncsc1-c1nnc(NC(=O)c2ccc(OC(F)(F)F)c(NC(=O)CN3CCN(C)CC3)c2)s1` [Example 111, 3-{[(4-methylpiperazin-1-yl)acetyl]amino}-N-[5-(4-methyl-1,3-thiazol-5-yl)-1,3,4-thiadiazol-2-yl]-4-(trifluoromethoxy)benzamide]: the IC50 (in assay [1]; with HCT116 FOPFlash) was no less than 50 µM in each case.

Regarding `CN1CCN(CC(=O)Nc2cc(C(=O)Nc3nnc(-c4cncnc4)s3)ccc2OC2CC2)CC1` [Example 112, 4-(cyclopropyloxy)-3-{[(4-methylpiperazin-1-yl)acetyl]amino}-N-[5-(pyrimidin-5-yl)-1,3,4-thiadiazol-2-yl]benzamide], the IC50 is 0.33 µM in assay [1] and no less than 50 µM in the assay with HCT116 FOPFlash.

`O=C(CN1CCOCC1)Nc1cc(C(=O)Nc2nnc(-c3cccnc3)s2)ccc1OC1COC1` [Example 113, 3-[(morpholin-4-ylacetyl)amino)-4-(oxetan-3 yloxy)-N-[5-(pyridin-3-yl)-1,3,4-thiadiazol-2-yl]benzamide]: the 50% inhibitory concentration (IC50) was 27 µM in assay [1] and no less than 50 µM in the assay on HCT116 FOPFlash.

With `COCCCOc1ccc(C(=O)Nc2nnc(-c3cnccc3C)s2)cc1NC(=O)CN1CCN(C)CC1` [Example 114, 4-(3-methoxypropoxy)-3-{[(4-methylpiperazin-1-yl)acetyl)amino}-N-[5-(4-methylpyridin-3-yl)-1,3,4-thiadiazol-2-yl]benzamide], the 50% inhibitory concentration (IC50) in assay [1] was 26.1 µM; with HCT116 FOPFlash it was no less than 50 µM.

On to `Cc1ccncc1-c1nnc(NC(=O)c2ccc(OCC3COC3)c(NC(=O)CN3CCN(C)CC3)c2)s1` [Example 115, 3-{[(4-methylpiperazin-1-yl)acetyl]amino}-N-[5-(4-methylpyridin-3-yl)-1,3,4-thiadiazol-2-yl]-4-(oxetan-3-ylmethoxy)benzamide], for which the concentration for half-maximal inhibition (IC50) (in assay [1]; in the assay on HCT116 FOPFlash) was no less than 50 µM in each case.

Consider `O=C(CN1CCOCC1)Nc1cc(C(=O)Nc2nnc(-c3ccncc3)s2)ccc1OC1CC1` [Example 116, 4-(cyclopropyloxy)-3-[(morpholin-4-ylacetyl)amino]-N-[5-(pyridin-4-yl)-1,3,4-thiadiazol-2-yl]benzamide], for which the 50% inhibitory concentration (IC50) (in assay [1]; in the assay with HCT116 FOPFlash) was no less than 50 µM throughout.

For `O=C(CN1CCOCC1)Nc1cc(C(=O)Nc2nnc(-c3cnccn3)s2)ccc1OC1CC1` [Example 117, 4-(cyclopropyloxy)-3-[(morpholin-4-ylacetyl)amino]-N-[5-(pyrazin-2-yl)-1,3,4-thiadiazol-2-yl]benzamide], the IC50 (in assay [1]; in the assay with HCT116 FOPFlash) was no less than 50 µM each time.

For `O=C(CN1CCOCC1)Nc1cc(C(=O)Nc2ccc(-c3cccnc3)cn2)ccc1OC1CC1` [Example 118, N-(3,3′-bipyridin-6-yl)-4-(cyclopropyloxy)-3-[(morpholin-4-ylacetyl)amino]benzamide], the IC50 (in assay [1]; in the assay on HCT116 FOPFlash) was no less than 50 µM in each case.

For the molecule `Nc1ccc(-c2nnc(NC(=O)c3ccc(OC4CC4)c(NC(=O)CN4CCOCC4)c3)s2)cn1` [Example 119, N-[5-(6-aminopyridin-3-yl)-1,3,4-thiadiazol-2-yl]-4-(cyclopropyloxy)-3-[(morpholin-4-ylacetyl)amino]benzamide], the half-maximal inhibitory concentration (IC50) (in assay [1]; in the assay on HCT116 FOPFlash) was no less than 50 µM in each case.

For `O=C(Nc1ccc([N+](=O)[O-])cc1Cl)c1cc(Cl)ccc1O` [niclosamide], the Dishevelled-2 protein regulation result with Dishevelled-2 protein is “down regulates Dishevelled-2 protein”. In addition, the “Wnt3A-stimulated R-catenin stabilization” value in assay [2] is reported as “inhibits”. Further, the “Frizzled1 internalization (endocytosis)” value in the assay with Frizzled1 is given as “promotes Frizzled1 internalization (endocytosis)”. Moreover, in assay [3], the LEF/TCF reporter activity entry is “inhibits”.
